These results are taken from ChEMBL document CHEMBL1201862, “PubChem BioAssay data set” (2004).

SMILES strings stand for the structures.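 All cell lines were grown in 96-well plates and treated with compound for 48 hours. GI50 is the concentration that inhibits growth by half.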 Calls of active or inactive are those of the source. Cut-off read from the data, not from the text of the source: active = GI50 up to about 1.1 µM and inactive = higher.

What is called GI50 is the concentration giving 50% growth inhibition.

Some test systems named below: 786-0; A549; CAKI-1; HCT-15; HL-60; IGROV-1; K562; NCI-H460; OVCAR-5; RPMI-8226; SF-268; SK-MEL-2; SK-MEL-5; U-251; NCI-H522; NCI-H226.
Common to all, as to test: DTP human tumour cell line panel, 48 h

With `O=S(=O)(O)C(F)(F)C(F)(F)C(F)(F)C(F)(F)F`, the GI50 is > 100 µM (inactive) with 786-0; > 100 µM (inactive) in the assay on A549; > 100 µM (inactive) in the assay on CAKI-1; greater than 100 µM in the assay with HCT-15; > 100 µM (inactive) in the assay with HL-60; > 100 µM (inactive) in the assay on IGROV-1. For the same molecule, the GI50 in the assay with K562, in the assay with NCI-H460, with OVCAR-5, in the assay on RPMI-8226, in the assay with SF-268 and in the assay with SK-MEL-2 was > 100 µM (inactive) throughout. In addition, the GI50 in the assay with SK-MEL-5 and in the assay on U-251 was > 100 µM (inactive) each time.
Consider `c1ccc(SC(CCCCOC2CCCCO2)Sc2ccccc2)cc1` (stereo not drawn), for which the GI50 was > 100 µM (inactive) in the assay with 786-0; 93.3 µM (inactive) with A549; 92.7 µM (inactive) in the assay on CAKI-1; 91.2 µM in the assay on HCT-15; 20.4 µM (inactive) in the assay with HL-60; 82.8 µM (inactive) in the assay on IGROV-1. Moreover, the GI50 is 52 µM (inactive) in the assay with K562; 99.1 µM (inactive) in the assay on NCI-H460; 18.4 µM (inactive) in the assay on NCI-H522; > 100 µM (inactive) in the assay on OVCAR-5; 32.4 µM (inactive) with RPMI-8226; 44.5 µM (inactive) in the assay on SF-268. For the same molecule, the GI50 in the assay on SK-MEL-2 was 22.6 µM (inactive); in the assay with SK-MEL-5, 30.5 µM (inactive); in the assay on U-251, > 100 µM (inactive).
In the case of `Cc1cc2c(C)n(Cc3ccccc3Cl)nc2c(C(=O)O)c1C`, the GI50 with 786-0 is > 100 µM (inactive); in the assay with A549 it was > 100 µM (inactive); in the assay on HCT-15, greater than 100 µM; with HL-60, > 100 µM (inactive); with IGROV-1, > 100 µM (inactive); in the assay on NCI-H226 it was > 100 µM (inactive). For the same molecule, the GI50 in the assay on NCI-H460, with OVCAR-5, in the assay with RPMI-8226, with SF-268, in the assay on SK-MEL-2 and with U-251 was > 100 µM (inactive) throughout.
Turning to `COC(=O)CC1NC(=O)C1C(C)(OC)OC` (stereo not drawn), the GI50 was > 100 µM (inactive) with 786-0; > 100 µM (inactive) in the assay with A549; greater than 100 µM in the assay on HCT-15; > 100 µM (inactive) in the assay with HL-60; > 100 µM (inactive) in the assay on IGROV-1; > 100 µM (inactive) in the assay with K562. Moreover, the GI50 in the assay on NCI-H226, in the assay with NCI-H460, in the assay on RPMI-8226, in the assay with SF-268, with SK-MEL-2 and in the assay on SK-MEL-5 was > 100 µM (inactive) throughout. For the same molecule, the GI50 in the assay with U-251 was > 100 µM (inactive).
Turning to `CC(=O)OC1COC(Nc2ccc(C(C)=O)cc2)C(OC(C)=O)C1OC(C)=O` (stereo not drawn), the GI50 is > 100 µM (inactive) in the assay with 786-0; > 100 µM (inactive) in the assay with A549; > 100 µM (inactive) with CAKI-1; greater than 100 µM with HCT-15; > 100 µM (inactive) with IGROV-1; > 100 µM (inactive) in the assay with K562. The GI50 in the assay with NCI-H226, in the assay on NCI-H460, in the assay on NCI-H522, in the assay with RPMI-8226, in the assay on SF-268 and in the assay with SK-MEL-2 was > 100 µM (inactive) in each case. The GI50 with SK-MEL-5 and in the assay with U-251 was > 100 µM (inactive) in each case.
As to `COC1OC2COC(c3ccccc3)OC2C(O)C1Br` (stereo not drawn), the GI50 in the assay with 786-0 is > 100 µM (inactive); in the assay on A549, > 100 µM (inactive); with CAKI-1, > 100 µM (inactive); in the assay on HCT-15, greater than 100 µM; with HL-60, > 100 µM (inactive); in the assay with IGROV-1, > 100 µM (inactive). Besides, the GI50 with K562, with NCI-H460, with NCI-H522, with OVCAR-5, in the assay on RPMI-8226 and with SF-268 was > 100 µM (inactive) throughout. In addition, the GI50 in the assay with SK-MEL-5 and in the assay with U-251 was > 100 µM (inactive) in each case.
For `CCOC(=O)CNC(=O)OCc1ccccc1`, the GI50 with 786-0 was > 100 µM (inactive); in the assay on A549, > 100 µM (inactive); in the assay with CAKI-1 it was > 100 µM (inactive); with HCT-15 it was greater than 100 µM; in the assay on HL-60, > 100 µM (inactive); in the assay with IGROV-1, > 100 µM (inactive). Besides, the GI50 with K562, in the assay with NCI-H460, in the assay with NCI-H522, with OVCAR-5, in the assay with SF-268 and in the assay on SK-MEL-2 was > 100 µM (inactive) in each case. In addition, the GI50 in the assay with U-251 was > 100 µM (inactive).
Turning to `C1=CC=C2NCCC/N=C3/C=CC=CC=C3NCCC/N=C\2C=C1`, the GI50 is > 100 µM (inactive) in the assay on 786-0; > 100 µM (inactive) in the assay with A549; greater than 100 µM with HCT-15; > 100 µM (inactive) with HL-60; > 100 µM (inactive) in the assay on IGROV-1; > 100 µM (inactive) in the assay with K562. The GI50 with NCI-H226, with NCI-H460, in the assay on OVCAR-5, with RPMI-8226, in the assay on SF-268 and in the assay on SK-MEL-2 was > 100 µM (inactive) throughout. In addition, the GI50 with SK-MEL-5 and with U-251 was > 100 µM (inactive) throughout.
For the molecule `Cc1cc2c(=O)cc(-c3ccc(Cl)cc3Cl)oc2c(C(=O)O)c1C`, the GI50 with 786-0 is > 100 µM (inactive); in the assay with A549 it was > 100 µM (inactive); in the assay with CAKI-1, > 100 µM (inactive); in the assay with HCT-15 it was greater than 100 µM; in the assay with IGROV-1 it was > 100 µM (inactive); in the assay with K562 it was > 100 µM (inactive). Moreover, the GI50 in the assay with NCI-H226 is > 100 µM (inactive); in the assay on NCI-H460 it was > 100 µM (inactive); in the assay with NCI-H522, 25.3 µM (inactive); in the assay on OVCAR-5, > 100 µM (inactive); in the assay with RPMI-8226, > 100 µM (inactive); in the assay on SF-268, > 100 µM (inactive). The GI50 in the assay with SK-MEL-2, with SK-MEL-5 and in the assay on U-251 was > 100 µM (inactive) in each case.
For `O=C1CC2Sc3ccccc3N=C2N1c1ccc(Cl)cc1Cl` (stereo not drawn), the GI50 is 30.3 µM (inactive) in the assay with 786-0; 83.4 µM (inactive) in the assay with A549; 18.8 µM (inactive) in the assay on HL-60; 78.2 µM (inactive) in the assay with IGROV-1; > 100 µM (inactive) in the assay on NCI-H226; > 100 µM (inactive) in the assay with NCI-H460. For the same molecule, the GI50 in the assay with OVCAR-5 was > 100 µM (inactive); with RPMI-8226 it was 49.2 µM (inactive); with SF-268 it was 40.9 µM (inactive); in the assay with SK-MEL-2, 46.6 µM (inactive); with SK-MEL-5 it was 81.5 µM (inactive); in the assay on U-251 it was 32.2 µM (inactive).
Consider `COc1cc2nc(Sc3c([N+](=O)[O-])ncn3C)[nH]c2cc1OC`, for which the GI50 in the assay with 786-0 was 71 µM (inactive); in the assay with A549, 34.8 µM (inactive); with CAKI-1, 4.47 µM (inactive); in the assay with HCT-15, 19.4 µM; in the assay with IGROV-1, 14.2 µM (inactive); with NCI-H226, 28.3 µM (inactive). In addition, the GI50 in the assay with NCI-H460 is 49.9 µM (inactive); in the assay on OVCAR-5, 98.6 µM (inactive); with RPMI-8226, 22.3 µM (inactive); in the assay with SF-268, 19.2 µM (inactive); in the assay with SK-MEL-5, 18.9 µM (inactive); with U-251, 31.3 µM (inactive).
